Source: patent publication US20140303216A1, “COMPOSITIONS AND METHODS FOR INDUCING DISRUPTION OF BLOOD VASCULATURE AND FOR REDUCING ANGIOGENESIS” (BOARD OF REGENTS, THE UNIVERSITY OF TEXAS SYSTEM, priority 2011, published 2014)

What was measured:
[1] = tested on: developing Xenopus embryos; experiment: Xenopus embryo angiogenesis, in situ hybridization for erg/apinr and kdr:GFP imaging; format: in vivo, Xenopus laevis; details: for anti-angiogenic activity of other benzimidazoles: Xenopus in vivo, at dosages at which TBZ reduces angiogenesis (FIG. 14)
Description: (§1) Female adult Xenopus were ovulated by injections of human chorionic gonadotropin, and eggs were fertilized in vitro and dejellied in 3% cysteine (pH 7.9) and subsequently reared in ⅓×Marc's modified Ringer's (MMR) solution. For microinjections, embryos were placed in a solution of 2% Ficoll in ⅓×MMR solution, injected using forceps and an Oxford universal manipulator, reared in 2% Ficoll in ⅓×MMR to stage 9, then washed and reared in ⅓×MMR solution alone. For bilateral rab11b knock-down experiments, the posterior cardinal vein and intersomitic veins were targeted by injecting Morpholino antisense oligonucleotides (MOs) into the two ventral cells equatorially at the four-cell stage. For unilateral knockdown, only one ventral cell was injected. MOs were injected at 40 ng per blastomere. For the experiments to see the drug effects, embryos were placed in a solution of each chemical dissolved in 1% DMSO diluted in ⅓×MMR during indicated stages. For bead micro-surgery implantation, Affi-Gel Blue Gel beads (Bio-Rad) were soaked with 0.7 mg/ml recombinant mouse VEGF 164 aa (R&D systems) or BSA as a control. Whole-mount in situ hybridization for erg and apinr was performed as described^29.
To analyze action of TBZ precisely on inhibition of angiogenesis and disruption of vasculature, we tested TBZ on two different developmental stages. Xenopus late tailbud embryos at stage 31 were selected for testing the inhibitory effect of TBZ on angiogenesis (FIG. 3A-D). This embryonic stage coincides with the onset of intersomitic vein (ISV) angiogenesis, the process of forming smaller blood vessels by sprouting from pre-existing blood vessels. To observe disruption of existing vasculature, we selected stage 35/36 embryos in which the posterior cardinal vein (PCV) and ISV are already developed (FIG. 15).

angiogenesis = details: from the literature; cited from earlier work
lung cancer = details: treatment of lung cancer; cited from earlier work
HUVECs = experiment: HUVEC wound scratch cell migration assay; format: cell-based, human; details: added to 250 μM TBZ in 1% DMSO; Y27632 preincubated 2 h
Method: HUVECs (1.2×10^5 cells) were seeded into 24-well plate for 24 h, and the monolayers were wounded identically. Then, cells were washed with PBS and treated with EBM-2 containing 1% DMSO or 250 μM TBZ dissolved in 1% DMSO with combination of Y27632 or GGPP (Sigma). In the case of Y27632 treatment, cells were preincubated for 2 h before wounding. Cells were photographed at time zero and after 15 h, and the ratios of cell free area [(0 h-15 h)/0 h] were calculated.

Xenopus embryos = experiment: Xenopus embryo morphology and developmental defects; format: in vivo; details: FIG. 14; 250 μM for 2-(Chloromethyl)benzimidazole
Description: as §1, with “1⁄3×Marc's” for “⅓×Marc's”, “1⁄3×MMR” for “⅓×MMR”, “[…] performed as described^29. Immunostaining for Xenopus” for “erg and apinr”, “previously described (Lee et al., 2008). Embryos at stage 35-36 were fixed in 1×MEMFA. 12/101 (1:500; DSHB), and primary antibodies were detected with Alexa Fluor-488 or 555 goat anti-mouse Immunoglobulin (IgG).” for “described^29.”

Row | anti-angiogenic activity of other benzimidazoles [1] | SMILES | Known effects on angiogenesis (angiogenesis) | other results
1 | not anti-angiogenic | Nc1ccc2[nH]c(C(F)(F)F)nc2c1 [5-Amino-2-(trifluoromethyl)benzimidazole] | – | –
2 | – | O=S(=O)([O-])[O-].[Cu+2] [CuSO4] | Activators^‡ | –
3 | – | [N]=O [Nitric oxide] | Activator^# | –
4 | – | COc1c(C)c2c(c(O)c1C/C=C(\C)CCC(=O)O)C(=O)OC2 [Mycophenolic acid] | Inhibitor* | –
5 | not anti-angiogenic | O=C(O)c1cccc2[nH]cnc12 [1H-Benzimidazole-4-carboxylic acid] | – | –
6 | – | Cc1ccc2c(=O)c3cccc(CC(=O)O)c3oc2c1C [ASA404] | – | efficacy in Phase III clinical trial (lung cancer): failed to show efficacy
7 | – | CC(C)=CCC/C(C)=C/CC/C(C)=C/CC/C(C)=C/COP(=O)(O)OP(=O)(O)O [GGPP, geranyl-geranyl pyrophosphate] | – | reversal of TBZ-impeded HUVEC migration by added compound (HUVECs): did not reverse
8 | not anti-angiogenic | ClCc1nc2ccccc2[nH]1 [2-(Chloromethyl)benzimidazole] | – | developmental (birth) defects in Xenopus (Xenopus embryos): pleiotropic birth defects
9 | not anti-angiogenic | Clc1ccc2nc(C(Cl)(Cl)Cl)[nH]c2c1 [5-Chloro-2-(trichloromethyl)benzimidazole] | – | –
10 | – | CC[C@H](C)C(=O)O[C@H]1C[C@@H](C)C=C2C=C[C@H](C)[C@H](CC[C@@H]3C[C@@H](O)CC(=O)O3)[C@H]21 [lovastatin] | inhibit angiogenesis | –
11 | – | O=c1[nH]cc(F)c(=O)[nH]1 [5-fluorouracil] | Inhibitor^† | –
12 | – | C[C@@H](N)[C@H]1CC[C@H](C(=O)Nc2ccncc2)CC1 [Y27632] | – | reversal of TBZ-impeded HUVEC migration by added compound (HUVECs): significant and dose-dependent rescue
13 | not anti-angiogenic | c1ccc2[nH]cnc2c1 [Benzimidazole] | – | activity in reducing angiogenesis ([1]; doses up to 1 mM): inactive

Row | SMILES | anti-angiogenic activity of other benzimidazoles [1] | Known effects on angiogenesis (angiogenesis) | other results
14 | Nc1nc2ccc(C(=O)c3ccc(F)cc3)cc2[nH]1 [2-Aminoflubendazole] | not anti-angiogenic | – | –
